# From patent US9549556B2, “Macrocyclic picolinamides as fungicides” (DOW AGROSCIENCES LLC, priority 2013, dated 2017)
# Read-outs that look alike come from different tables or passages of the source.
# Assays:
# Puccinia triticina = assay: Wheat brown rust (PUCCRT) disease control on wheat seedlings; format: in vivo; conditions: read-out: PUCCRT disease control rating (% Control); for pest or weed control at 100 ppm: high volume application; for pest or weed control at 121.5 g/ha: 121.5 g/H, low volume (track spray) application
# Septoria tritici = assay: Leaf blotch of wheat (SEPTTR) disease control on wheat seedlings; format: in vivo, Mycosphaerella graminicola (anamorph Septoria tritici); conditions: Zymoseptoria tritici, read-out: SEPTTR disease control rating (% Control); for pest or weed control at 100 ppm: high volume application; for pest or weed control at 121.5 g/ha: 121.5 g/H, low volume (track spray) application
# Procedure: Evaluation of Fungicidal Activity: Leaf Blotch of Wheat (Mycosphaerella graminicola; Anamorph: Septoria tritici; Bayer Code […]) Technical grades of materials were dissolved in acetone, which were then mixed with nine volumes of water containing 110 ppm Triton X-100. The fungicide solutions were applied onto wheat seedlings using an automated booth sprayer to run-off. All sprayed plants were allowed to air dry prior to further handling. All fungicides were evaluated using the aforementioned method for their activity vs. all target diseases. Wheat leaf blotch and brown rust activity were also evaluated using track spray applications, in which case the fungicides were formulated as EC formulations, containing 0.1% Trycol 5941 in the spray solutions. Wheat plants (variety Yuma) were grown from seed in a greenhouse in 50% mineral soil/50% soil-less Metro mix until the first leaf was fully emerged, with 7-10 seedlings per pot. These plants were inoculated with an aqueous spore suspension of Septoria tritici either prior to or after fungicide treatments. After inoculation the plants were kept in 100% relative humidity (one day in a dark dew chamber followed by two to three days in a lighted dew chamber at 20° C.) to permit spores to germinate and infect the leaf. The plants were then transferred to a greenhouse set at 20° C. for disease to develop. When disease symptoms were fully expressed on the 1st leaves of untreated plants, infection levels were assessed on a scale of 0 to 100 percent disease severity. Percent disease control was calculated using the ratio of disease severity on treated plants relative to untreated plants.
SMILES,"pest or weed control at 100 ppm (Puccinia triticina; 24 h, 1DP (1 Day Protectant)) [%]","pest or weed control at 100 ppm (Puccinia triticina; 72 h, 3DC (3 Day Curative)) [%]","pest or weed control at 100 ppm (Septoria tritici; 24 h, 1DP (1 Day Protectant)) [%]","pest or weed control at 100 ppm (Septoria tritici; 72 h, 3DC (3 Day Curative)) [%]","pest or weed control at 121.5 g/ha (Puccinia triticina; 24 h, 1DP (1 Day Protectant)) [%]","pest or weed control at 121.5 g/ha (Puccinia triticina; 72 h, 3DC (3 Day Curative)) [%]","pest or weed control at 121.5 g/ha (Septoria tritici; 24 h, 1DP (1 Day Protectant)) [%]","pest or weed control at 121.5 g/ha (Septoria tritici; 72 h, 3DC (3 Day Curative)) [%]"
CCCC[C@H]1[C@H](C)OC(=O)[C@@H](NC(=O)c2nccc(OC)c2O)COC[C@@H]1OCc1ccccc1 [Compound 37],> 70,> 70,> 70,> 70,,,,
COc1ccnc(C(=O)N[C@H]2COC[C@H](OC(=O)C3CC3)[C@@H](Cc3ccc(F)cc3)[C@H](C)OC2=O)c1OCOC(C)=O [Compound 59],,,,,> 70,> 70,> 70,> 70
COc1ccnc(C(=O)N[C@H]2COC[C@H](OCc3ccccc3)[C@@H](Cc3ccc(F)cc3)[C@H](C)OC2=O)c1OCOC(C)=O [Compound 30],,,,,> 70,> 70,> 70,> 70
CCCC[C@H]1[C@H](C)OC(=O)[C@@H](NC(=O)c2nccc(OC)c2OCOC(C)=O)COC[C@@H]1OC(=O)C(C)C [Compound 43],,,,,> 70,> 70,< 70,> 70
CCCC[C@H]1[C@H](C)OC(=O)[C@@H](NC(=O)c2nccc(OC)c2O)COC[C@@H]1OCCCC(F)(F)F [Compound 65],> 70,< 70,> 70,> 70,,,,
CCCC[C@H]1[C@H](C)OC(=O)[C@@H](NC(=O)c2nccc(OC)c2OCOC(C)=O)COC[C@@H]1OCCCC(F)(F)F [Compound 48],,,,,> 70,> 70,> 70,> 70
COc1ccnc(C(=O)N[C@H]2COC[C@H](OCC3CC3)[C@@H](Cc3ccccc3)[C@H](C)OC2=O)c1OCOC(C)=O [Compound 80],> 70,> 70,> 70,> 70,> 70,> 70,> 70,> 70
CCCC[C@H]1[C@H](C)OC(=O)[C@@H](NC(=O)c2nccc(OC)c2O)COC[C@@H]1Oc1ccccc1 [Compound 45],> 70,< 70,> 70,< 70,,,,
COc1ccnc(C(=O)N[C@H]2COC[C@H](Oc3ccc(C)cc3)[C@@H](Cc3ccc(F)cc3)[C@H](C)OC2=O)c1OCOC(C)=O [Compound 64],,,,,> 70,< 70,> 70,> 70
COc1ccnc(C(=O)N[C@H]2COC[C@H](OCC3CC3)[C@@H](Cc3ccc(F)cc3)[C@H](C)OC2=O)c1OC(C)=O [Compound 28],,,,,> 70,> 70,> 70,> 70
COc1ccnc(C(=O)N[C@H]2COC[C@H](OCc3ccccc3)[C@@H](CCC(C)C)[C@H](C)OC2=O)c1OCOC(C)=O [Compound 14],,,,,> 70,> 70,> 70,> 70
COc1ccnc(C(=O)N[C@H]2COC[C@H](Oc3ccc(C)cc3)[C@@H](Cc3ccc(F)cc3)[C@H](C)OC2=O)c1OC(C)=O [Compound 10],,,,,> 70,< 70,> 70,> 70
COc1ccnc(C(=O)N[C@H]2COC[C@H](Oc3ccc(C)cc3)[C@@H](Cc3ccc(F)cc3)[C@H](C)OC2=O)c1O [Compound 23],> 70,< 70,> 70,< 70,,,,
COCCC(=O)Oc1c(OC)ccnc1C(=O)N[C@H]1COC[C@H](Oc2ccccc2)[C@@H](Cc2ccccc2)[C@H](C)OC1=O [Compound 73],,,,,> 70,> 70,> 70,> 70
CCCO[C@H]1COC[C@H](NC(=O)c2nccc(OC)c2O)C(=O)O[C@@H](C)[C@@H]1Cc1ccc(F)cc1 [Compound 17],> 70,> 70,> 70,> 70,,,,
COc1ccnc(C(=O)N[C@H]2COC[C@H](OC(=O)C3CC3)[C@@H](Cc3ccc(F)cc3)[C@H](C)OC2=O)c1O [Compound 25],> 70,> 70,> 70,> 70,,,,
COc1ccnc(C(=O)N[C@H]2COC[C@H](OCC3CC3)[C@@H](Cc3ccc(F)cc3)[C@H](C)OC2=O)c1O [Compound 24],> 70,> 70,> 70,> 70,,,,
COc1ccnc(C(=O)N[C@H]2COC[C@H](OCc3ccccc3)[C@@H](Cc3ccc(F)cc3)[C@H](C)OC2=O)c1O [Compound 38],> 70,> 70,> 70,> 70,,,,
CCCO[C@H]1COC[C@H](NC(=O)c2nccc(OC)c2OC(C)=O)C(=O)O[C@@H](C)[C@@H]1Cc1ccc(F)cc1 [Compound 20],,,,,> 70,> 70,> 70,> 70
"CCCO[C@H]1COC[C@H](NC(=O)c2nccc(OC)c2OCOC(C)=O)C(=O)O[C@@H](C)[C@@H]1CCC(C)C [Compound 18, ((2-(((3S,7R,8S,9S)-8-isopentyl-9-methyl-2-oxo-7-propoxy-1,5-dioxonan-3-yl)carbamoyl)-4-methoxypyridin-3-yl)oxy)methyl acetate]",,,,,> 70,> 70,< 70,> 70
COc1ccnc(C(=O)N[C@H]2COC[C@H](OC(=O)C3CC3)[C@@H](CCC(C)C)[C@H](C)OC2=O)c1O [Compound 36],< 70,< 70,< 70,> 70,,,,
CCOCC(=O)OCOc1c(OC)ccnc1C(=O)N[C@H]1COC[C@H](OCOCc2ccccc2)[C@@H](Cc2ccccc2)[C@H](C)OC1=O [Compound 26],> 70,> 70,> 70,> 70,,,,
"COc1ccnc(C(=O)N[C@H]2COC[C@H](OC(=O)C3CC3)[C@@H](CCC(C)C)[C@H](C)OC2=O)c1OC(C)=O [Compound 68, (3S,7R,8S,9S)-3-(3-acetoxy-4-methoxypicolinamido)-8-isopentyl-9-methyl-2-oxo-1,5-dioxonan-7-yl cyclopropanecarboxylate]",,,,,> 70,> 70,< 70,> 70
CCCO[C@H]1COC[C@H](NC(=O)c2nccc(OC)c2OCOC(=O)COCC)C(=O)O[C@@H](C)[C@@H]1Cc1ccc(F)cc1 [Compound 8],,,,,> 70,> 70,> 70,> 70
COc1ccnc(C(=O)N[C@H]2COC[C@H](OCC(C)C)[C@@H](Cc3ccccc3)[C@H](C)OC2=O)c1OCOC(C)=O [Compound 85],> 70,> 70,< 70,> 70,> 70,> 70,> 70,> 70
COc1ccnc(C(=O)N[C@H]2COC[C@H](OCC3CC3)[C@@H](Cc3ccccc3)[C@H](C)OC2=O)c1O [Compound 83],> 70,> 70,> 70,> 70,,,,
